Reference: patent publication US20260374809A1, “COMPOUNDS USEFUL FOR THE TREATMENT AND/OR CARE OF THE SKIN, HAIR, NAILS AND/OR MUCOUS MEMBRANES” (Lubrizol Advanced Materials, Inc., priority 2022, published 2026)
Where a SMILES comes first, the peptide text is derived from it. [ ]: non-standard residue; d: D form. The star is where a group is joined. Palmitoyl = CCCCCCCCCCCCCCCC(=O)*

System: Human dermal fibroblast (HDF)
Test: Collagen contraction assay with human dermal fibroblasts in collagen gel
Type: cell-based
Settings: 0.01 mg/ml; basal control = 100, positive control with MES = 159.7
Source text: It is known that a remarkable change in the mechanical properties of the skin with aging is due to reduced contractile capacity as well as reduced migration activity of fibroblasts. Healthy fibroblasts induce contraction of the collagen network through physical interactions with collagen fibers. The collagen network is essential for maintaining the firmness of the skin. The collagen contraction assay is a well-known experimental approach to measuring the cell-induced contraction of the extracellular matrix. In this assay, the capacity of fibroblasts, embedded in a collagen-based gel, to reduce the gel diameter is evaluated.
By improving the contractile forces, the mechanical tension can be improved, which can be associated to “lifting” effect at the scale of fibroblasts.
The microcurrent system was built by coupling gold electrodes (in order to avoid medium oxidation leading to cell death when current goes through) to opposite sides of 60 mm Petri dishes (separated by 4 cm). When a voltage is applied, an electric field generates between opposite positive and negative poles and current passes through the culture. During the stimulation time (2 hours), each of the 60 mm Petri dishes is connected to a voltage source that allows regulating the amount of current that passes through each of them. For these experiments, a […] current (which corresponds to approx. 67 mV/mm) was used.
Human dermal fibroblast (HDF) cell culture and expansion: Cells were thawed in T75 flasks and the growth medium was changed every 2 days of cell culture. After 7 days, cells were expanded to obtain a total amount of 7×10^6 cells to be used in the experiments.
Once finished the expansion, cultures are trypsinized and seeded at 3×10^5 cells/60 mm Petri up to a total of 10 dishes per replicate. These ten dishes correspond to one experiment (Control/-MES vs+MES) at a specific concentration. Peptide treatment was performed at 0.01 mg/ml.
After an overnight (O/N) incubation to allow cell attachment, each Petri dish is treated at the corresponding concentration with 4 ml of specific medium for a total of 24 hours in both conditions (without MES and with MES). Peptide treatment on the dishes that are not stimulated with microcurrent is initiated 2 hours in advance, and their passage into 3D cultures occurs at the same time as the microcurrent stimulation of the other dishes. […]
Each 3D culture is prepared by mixing collagen solution with the culture medium corresponding to each of the conditions (without peptide or with peptide). […] Images of collagen gel diameter are taken of each well at 24 hours post detachment and analyzed by ImageJ. […]
[formula] • An initial area is stablished. […] Area t=0 gel […]1.86 cm^2 (Area of a well in a 24-well plate) • Quantification of Area at t=x; Ax. […]

Compound	Collagen contraction, MEAN (comparative peptides)
CSCC[C@H](NC(=O)[C@@H](CCC(N)=O)NC(=O)[C@H](CCCNC(=N)N)NC(=O)[C@H](CCCNC(=N)N)NC(C)=O)C(=O)N[C@@H](CCC(=O)O)C(=O)N[C@@H](CCC(=O)O)C(N)=O [Ac-Arg-Arg-D-Gln-Met-Glu-Glu-NH2] (Ac-RR[dQ]MEE-NH2)	82.5
H-ALKPNT-NH2 [H-Ala-Leu-Lys-Pro-Asn-Thr-NH2]	101.4
CC(=O)N[C@@H](CC(=O)O)C(=O)N[C@H](C(=O)N[C@@H](Cc1ccc(O)cc1)C(=O)N[C@@H](CCCCN)C(N)=O)C(C)C [Ac-Asp-Val-Tyr-Lys-NH2] (Ac-DVYK-NH2)	91.6

System: Musclebind Like Protein 1 (MBNL1)
Test: MBNL1 protein expression in human skeletal muscle cells (hSKMC), HTRF
Type: cell-based
Settings: 0.5 mg/ml, 48 hours, relative to basal control
Procedure: Musclebind Like Protein 1 (MBNL1) in Human Skeletal Muscle Cells (hSKMC)
An increase of MBNL-1 in muscle cells helps maintaining the tone of facial skin muscles. Thus, compounds able to enhance MBNL-1 can be used as a good approach for cosmetic treatment of sagging facial appearance.
Human skeletal muscle cells (hSKMC) were cultured at 100,000 cells in T25 flasks with growth medium. After 4 days, cells reached around 80% of confluency and were seeded at 150,000 cells per well in 12-well plates in growth medium. Cells were incubated for 72 hours and then they were changed to differentiation medium and incubated during 48 hours. At the end of this period, cells were treated with defined peptides (0.5 mg/ml) and with medium alone for control conditions during 48 hours in differentiation medium. Cells were also treated with 2 mM of ketoprofen as a positive control.
After the incubation period, cells were lysed and frozen at −80 °C. For total protein quantification protein extract was measured by Bicinchoninic Acid (BCA) method. MBNL1 protein detection was performed by Homogeneous Time Resolved Fluorescence (HTRF) technology. Normalization of MBNL1 levels were performed by total protein quantification for each condition. Results are expressed as a relative MBNL1 protein level respect to control conditions. At least 3 replicates were carried out per condition.

Compound	% MBNL1 vs Basal control [%]
H-ALPVT-OH [PEP-11, H-Ala-Leu-Pro-Val-Thr-OH]	259.0
CCCCCCCCCCCCCCCC(=O)N[C@@H](CC(C)C)C(=O)N1CCC[C@H]1C(=O)N[C@H](C(=O)N[C@H](C(=O)O)[C@@H](C)O)C(C)C [PEP-3, Palm-Leu-Pro-Val-Thr-OH] (Palmitoyl-LPVT-OH)	160.4
CC(=O)N[C@@H](CC(C)C)C(=O)N1CCC[C@H]1C(=O)N[C@H](C(=O)N[C@H](C(N)=O)[C@@H](C)O)C(C)C [PEP-5, Ac-Leu-Pro-Val-Thr-NH2] (Ac-LPVT-NH2)	213.7
CC[C@H](C)[C@H](N)C(=O)N1CCC[C@H]1C(=O)N[C@H](C(=O)N[C@H](C(=O)O)[C@@H](C)O)[C@@H](C)CC [PEP-13, H-Ile-Pro-Ile-Thr-OH] (H-IPIT-OH)	133.3
CC(=O)N[C@@H](CC(C)C)C(=O)N1CCC[C@H]1C(=O)N[C@H](C(=O)N[C@H](C(=O)O)[C@@H](C)O)C(C)C [PEP-4, Ac-Leu-Pro-Val-Thr-OH] (Ac-LPVT-OH)	131.3
CC(C)C[C@H](N)C(=O)N[C@@H](C)C(=O)N[C@H](C(=O)N[C@H](C(=O)O)[C@@H](C)O)C(C)C [PEP-6, H-Leu-Ala-Val-Thr-OH] (H-LAVT-OH)	157.0
CC(C)C[C@H](N)C(=O)NCC(=O)N[C@H](C(=O)N[C@H](C(=O)O)[C@@H](C)O)C(C)C [PEP-9, H-Leu-Gly-Val-Thr-OH] (H-LGVT-OH)	122.4
CC(C)C[C@H](N)C(=O)N1CCC[C@H]1C(=O)N[C@H](C(=O)O)C(C)C [PEP-12, H-Leu-Pro-Val-OH] (H-Leu-Pro-Val-OH)	177.8
CC(C)C[C@H](N)C(=O)N1CCC[C@H]1C(=O)N[C@H](C(=O)N[C@H](C(N)=O)[C@@H](C)O)C(C)C [PEP-2, H-Leu-Pro-Val-Thr-NH2] (H-LPVT-NH2)	183.2
CC[C@H](C)[C@H](NC(=O)[C@@H]1CCCN1C(=O)[C@@H](N)CC(C)C)C(=O)N[C@H](C(=O)O)[C@@H](C)O [PEP-7, H-Leu-Pro-Ile-Thr-OH] (H-LPIT-OH)	156.3
CC(C)[C@H](N)C(=O)N1CCC[C@H]1C(=O)N[C@H](C(=O)N[C@H](C(=O)O)[C@@H](C)O)C(C)C [PEP-8, H-Val-Pro-Val-Thr-OH] (H-VPVT-OH)	131.3
CC(C)C[C@H](NC(=O)[C@@H]1CCCN1C(=O)[C@@H](N)CC(C)C)C(=O)N[C@H](C(=O)O)[C@@H](C)O [PEP-10, H-Leu-Pro-Leu-Thr-OH] (H-LPLT-OH)	222.0

System: eyebrow
Test: In vivo eyebrow lifting effect in Caucasian volunteers (FrameScan image analysis)
Design: species or system human
Settings: 28 days; result in words
Procedure: The study was carried out for 28 days. Forty-six (46) volunteers aged between 40 and 65 years old were included in the study and were divided into two groups. The first group included 36 volunteers (31 women and 5 men) which applied the composition described in Example 5 on half face and placebo (same composition without peptide) on the other half, twice a day for 28 days. The second group of 10 volunteers (9 women and 1 man) used a microcurrent device (Nuface®) with an activator gel without active ingredients once a day. Volunteers using the microcurrent device were trained on how to apply the activator gel and how to use the device to standardize its application among them. […]
Volunteers' facial images were acquired at initial time and after 28 days of product application. The efficacy of the product was assessed by the measurement of a diagonal distance between eyelashes and eyebrows obtained from image analysis with FrameScan® software. The diagonal distance was calculated by drawing a horizontal line between a point at the start of the eyelashes and a point at the end of eyelashes (the eyelashes' line). […]
A study was carried out for 28 days for determining the lifting effect of Ac-Asp-Val-Tyr-Lys-NH2 (not according to the invention). […] The eyebrow lifting effect was determined as disclosed in Example 12.

Compound	Lifting effect
CC(=O)N[C@@H](CC(=O)O)C(=O)N[C@H](C(=O)N[C@@H](Cc1ccc(O)cc1)C(=O)N[C@@H](CCCCN)C(N)=O)C(C)C [Ac-Asp-Val-Tyr-Lys-NH2] (Ac-DVYK-NH2)	did not have a lifting effect
